According to PubChem BioAssay AID1645868 (Buhrlage Lab, Dana-Farber Cancer Institute and Novartis …, 2021):
Active and inactive are the calls of the source.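 How the source made its calls: active means maximal percent inhibition of the deubiquitinase OTUD3 of at least 30% across the tested doses; inactive means the rest.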

What follows are compounds tested against OTU domain-containing protein 3 (Homo sapiens) (UniProt Q5T2D3) (assay: Validation of screening hits, potency titration, in vitro enzymatic, OTU domain-containing protein 3 DUB inhibitors (AID 1645868)). Conditions: purified OTUD3, ubiquitin-rhodamine cleavage fluorescence, 2 h.
OTU domain-containing protein 3 (Homo sapiens), sequence (Q5T2D3 whole entry, looked up, the tested form may be a part): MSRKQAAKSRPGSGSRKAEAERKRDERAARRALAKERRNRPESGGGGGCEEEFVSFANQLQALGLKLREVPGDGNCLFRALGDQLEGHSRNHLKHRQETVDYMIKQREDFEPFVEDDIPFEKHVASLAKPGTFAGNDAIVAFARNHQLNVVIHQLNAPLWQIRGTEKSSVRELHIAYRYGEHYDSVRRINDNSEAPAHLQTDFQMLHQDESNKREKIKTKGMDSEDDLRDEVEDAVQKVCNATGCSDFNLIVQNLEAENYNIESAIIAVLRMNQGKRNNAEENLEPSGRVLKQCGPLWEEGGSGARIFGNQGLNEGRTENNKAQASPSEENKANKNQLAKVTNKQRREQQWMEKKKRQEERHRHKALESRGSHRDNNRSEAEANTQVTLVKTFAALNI

Structure (SMILES)	IC50
Cc1ccc2nc(CNc3ccc(F)cc3C)cc(=O)n2c1	> 50 µM (inactive)
Cc1nn(-c2ccc([N+](=O)[O-])cc2)c(C)c1-c1nc2ccccc2[nH]1	24.3 µM
N#Cc1cccc(S(=O)(=O)N2CCc3nc4ccccc4n3CC2)c1	28.3 µM
CCOc1ccc2c(c1)c(=O)c(C(=O)c1ccc(C)cc1)cn2CC(=O)Nc1ccc(OC)cc1	> 50 µM (inactive)
O=C(Nc1ccc(Cl)cc1F)c1cc(-c2ccccn2)n[nH]1	> 50 µM (inactive)
Cc1ccccc1C(=O)NCCn1cc(SCC(=O)Nc2ccc3c(c2)OCCO3)c2ccccc21	> 50 µM (inactive)
COc1cc(C#N)c(NC(=NCc2ccc(F)cc2)SC)cc1OC	49 µM
NC(=O)c1nc(-c2cccnc2)nc2c1[nH]c(=O)n2-c1ccc2c(c1)OCO2	> 50 µM (inactive)
COc1cc(O)c2c(=O)c(-c3ccc(O)cc3)coc2c1	> 50 µM (inactive)
Nc1c(-c2ccc(Cl)cc2)cnc2nc(Sc3ncc(C(F)(F)F)cc3Cl)nn12	> 50 µM (inactive)
Cc1cc(SCc2ncon2)c(C)cc1Cl	> 50 µM (inactive)
CCCCCCCCCC(CCCCCCCCCC(=O)O)O[C@H]1O[C@@H](COC(C)=O)[C@H](O)[C@@H](O)[C@H]1OC(=O)CC(=O)O (some centres not stated)	22.5 µM
N#Cc1cccc(NC(=O)Cn2cccc(-c3nc(-c4ccccc4)no3)c2=O)c1	> 50 µM (inactive)
Cc1nc(Nc2c3ccccc3nc3ccccc23)sc1C	> 50 µM (inactive)
COc1ccc(NC(=O)Cn2cc(C(=O)c3ccc(F)cc3)c(=O)c3cc(C)ccc32)cc1	23.2 µM
CCn1c(Cn2cccn2)nc2cc(NC(=O)c3ccc(F)cc3)ccc21	> 50 µM (inactive)
O=C1c2c(O)c(Cl)cc3c2[C@@]2(Oc4cc(Cl)c(O)c5c4[C@]3(O2)[C@@H]2O[C@@H]2C5=O)[C@@H]2O[C@H]12	0.703 µM
COc1ccc(OC)c(NC(=O)c2ccc(-n3nnnc3SC)cc2)c1	> 50 µM (inactive)
COc1ccc(OC)c(C2CC(=O)Nc3n[nH]c(-c4ccccc4)c32)c1 (configuration not stated)	37.8 µM
COc1ccc(C)cc1NC(=O)C1CC(=O)Nc2nc(SCc3ccccc3)nn21 (configuration not stated)	16.9 µM
Cc1ccc(C(=O)NCc2ccc(C(=O)Nc3cccc(C)c3)o2)cc1	> 50 µM (inactive)
CCOC(=O)c1cccc(NC(=O)Nc2cccn3nc(C)nc23)c1	> 50 µM (inactive)
O=C(COC(=O)c1ccc(Cl)cc1)Nc1ccc2[nH]c(=O)[nH]c2c1	12.7 µM
O=C(Nc1ccncc1)c1ncoc1-c1cccc(Cl)c1	> 50 µM (inactive)
COc1ccc(-c2cc(C(=O)N3CCN(c4ccc([N+](=O)[O-])cc4)CC3)[nH]n2)cc1	> 50 µM (inactive)

Structure (SMILES)	IC50
C=C1CCC2[C@](C)(CCC[C@]2(C)C(=O)OC)[C@H]1CCc1ccoc1C[N+](C)(C)Cc1ccccc1 (some centres not stated)	> 50 µM (inactive)
O=C(Nc1ccc2ccccc2n1)c1ccc(Cl)cc1	28.8 µM
CC1OC1C(=O)[C@]1(O)[C@H](C)[C@@H](O)[C@@]23O[C@@]2([C@H](O)c2c(O)cccc2C3=O)[C@H]1O (some centres not stated)	> 50 µM (inactive)
COc1cc(NC(=O)Cn2nc(-c3ccc(F)cc3)ccc2=O)ccc1-n1cnnn1	5.56 µM
CNC(=O)c1cc2nc(N(C)C)n(-c3ccc(F)cc3)c2s1	> 50 µM (inactive)
COc1ccc(N(CC(=O)NC2CCCCC2)C(=O)c2ccc(-c3ccccc3)[nH]2)cc1OC	11.8 µM
Cc1nc(-c2ccc(C(=O)NCc3ccc(F)cc3)cc2)cs1	> 50 µM (inactive)
Oc1ccc(-c2nc3ccc(Cl)cn3c2NC2CCCCC2)cc1	29.7 µM
N[C@@H](Cc1ccccc1)C(=O)N1CCC2(CC1)CN(C(=O)c1ccc(Cl)cc1)CCO2	> 50 µM (inactive)
O=C(NCc1ccc(F)cc1)C1CCN(c2cnc(N3CCCCC3)nc2)CC1	> 50 µM (inactive)
O=C(Nc1ccc(F)cc1)Nc1ccccc1OCc1cc(=O)n2ccccc2n1	39.3 µM
COc1ccc(/C=C/C(=O)N2CCc3ccccc32)cc1S(=O)(=O)N1CCOCC1	> 50 µM (inactive)
Cc1cc(=O)n(CC(=O)Nc2ccccc2C)c(Nc2ccc(F)cc2)n1	23.3 µM
O=C(CSc1nnc(-c2ccc3c(c2)OCO3)n1-c1ccccc1)OCC(=O)c1ccccc1	> 50 µM (inactive)
C=Cc1ccc(Cn2cccc(S(=O)(=O)N3CCCC3)c2=O)cc1	> 50 µM (inactive)
CC(C)N1CC2CN(C(=O)c3ccccc3)CCN2Cc2ccccc21 (configuration not stated)	> 50 µM (inactive)
CC(=O)c1cccc(NC(=O)c2ccc3[nH]c4c(c3c2)CC(C)CC4)c1 (configuration not stated)	> 50 µM (inactive)
O=C(NCc1ccc2c(c1)OCO2)c1cc(-c2cc(Cl)ccc2O)n[nH]1	40.7 µM
CCC(=O)Nc1nc2cc(NC(=O)Nc3cc(C)cc(C)c3)ccc2s1	7.84 µM
COc1ccc(CNC(=O)CCc2nnc3n(Cc4ccccc4Cl)c(=O)c4ccccc4n23)cc1	13.1 µM
Cc1c(-c2nn3c(-c4ccco4)nnc3s2)cccc1[N+](=O)[O-]	> 5 µM (inactive)
CN1C(=O)COc2ccc(NC(=O)c3cc(-c4ccccc4)on3)cc21	> 50 µM (inactive)
Cc1cc(NC(=O)c2cc(-c3cccnc3)n[nH]2)ccc1Br	12.2 µM
O=c1c2ccccc2c(-c2nc(-c3ccncc3)no2)cn1-c1ccccc1	> 5 µM (inactive)
FC(F)(F)c1ccccc1CCN1CCc2nc3ccc(Cl)cc3cc2C1	> 50 µM (inactive)

Structure (SMILES)	IC50
Cc1ccc(Nc2nc(C(=O)NCc3ccc4c(c3)OCO4)cc3occc23)cc1Cl	> 50 µM (inactive)
O=C(Cc1ccc(Cl)c(Cl)c1)OCC(=O)c1c[nH]c2ccccc12	> 50 µM (inactive)
CSc1cccc(NC(=O)COc2cccc3ccccc23)c1	39.6 µM
CC1CCN(Cc2nnc(-c3cn(CC(=O)NC4CCCCC4)c4ccccc34)o2)CC1	> 50 µM (inactive)
O=S1(=O)CCN(Cc2ccccc2)c2c(F)nc(N3CCCCC3)c(F)c21	> 50 µM (inactive)
COc1ccc(CCNC(=O)c2noc3c2CCc2sccc2-3)cc1OC	> 50 µM (inactive)
CCCc1nc2sc3c(NCc4ccco4)ncnc3c2c2c1CCC2	> 50 µM (inactive)
Cc1cccc(OCCn2c(CCNC(=O)C3CCCCC3)nc3ccccc32)c1	32.8 µM
CSc1nccc(-c2ccc(F)cc2)c1C#N	> 50 µM (inactive)
C=C1Nc2ccccc2C(=O)N1c1cccc(NC(=O)c2ccc(C)c(C)c2)c1	> 50 µM (inactive)
O=C(COc1ccccc1-c1nnc(-c2ccccc2)o1)Nc1ccc(F)cc1F	39.4 µM
CCOC(=O)c1cnn(-c2ccc(C(=O)Nc3ccc(C)c(Cl)c3)cc2)c1N	> 50 µM (inactive)
CCn1c(SCC(=O)c2c(N)n(CC(C)C)c(=O)n(C)c2=O)nnc1-c1ccccc1	25.6 µM
CC(C)NS(=O)(=O)c1ccc(OCC(=O)N2CCC(Cc3ccccc3)CC2)cc1	> 50 µM (inactive)
CCCNC(=O)c1ccn(-c2ccc3ccc(-c4cnn(C)c4)cn23)n1	> 50 µM (inactive)
CC(c1ccccc1)c1nc(-c2ccc(=O)[nH]c2)no1 (configuration not stated)	> 50 µM (inactive)
O=C(Nc1cc(-c2cccnc2)no1)c1ccc(F)c(F)c1	31.4 µM
N#C/C(=C\c1ccc(-c2cc(Cl)ccc2Cl)o1)c1nnc2n1CCCCC2	> 50 µM (inactive)
Cc1ccccc1NC(=O)C(C)n1c(=O)cc(-c2ccccc2)c2c(C)nn(C)c21 (configuration not stated)	38 µM
O=C(COC(=O)Cn1cnc2ccccc21)Nc1ccc2c(c1)OCCO2	> 50 µM (inactive)
O=C(Cn1ccc2ccc(N3CCOCC3)nc21)NCc1ccccc1F	> 50 µM (inactive)
Cc1ccc2c(=O)c(C(=O)Nc3ccccc3)cn(CC(=O)NC3CCCCC3)c2n1	> 50 µM (inactive)
O=C(NCCN1CCCC1)C1CCN(c2cnc(N3CCCCC3)nc2)CC1	> 50 µM (inactive)
O=C(CC1C(=O)Nc2nc(-c3ccccc3)nn21)Nc1cccc2ccccc12 (configuration not stated)	25 µM
O=C(NCc1cccc(NC(=O)C2CC2)c1)Nc1cccc2ccccc12	30.7 µM

Structure (SMILES)	IC50
Fc1cccc(-n2cc(-c3noc(-c4ccccn4)n3)nn2)c1	27 µM
O=C(COc1ccc2c(c1)CCC2)Nc1ccc2c(c1)CCC2	> 50 µM (inactive)
CC(C)NS(=O)(=O)c1cccc2c(NC(=O)C(Cc3ccccc3)NC(=O)c3ccccc3)cccc12 (configuration not stated)	> 50 µM (inactive)
O=C(Nc1ccccc1Br)c1ccn(COc2ccccc2F)n1	46.7 µM
COc1ccc(-c2nc(C)c(C(=O)NCc3ccc(S(N)(=O)=O)cc3)s2)cc1	> 50 µM (inactive)
CC(C(=O)NCc1ccc(F)cc1)n1cccc1C(=O)c1ccccc1 (configuration not stated)	> 50 µM (inactive)
O=c1c2ccccc2ncn1C1CCN(S(=O)(=O)c2ccccc2F)CC1	> 50 µM (inactive)
CN1CC2CN(C(=O)c3ccc(F)cc3)CCN2Cc2ccccc21 (configuration not stated)	> 50 µM (inactive)
Cc1cc(-c2ccnc3c(C#N)cnn23)c(C)s1	> 50 µM (inactive)
COC(=O)CC1CC23OC2(C(=O)c2c(O)cccc2C3=O)C(C)O1 (configuration not stated)	> 50 µM (inactive)
CCOc1cccc2sc(N(Cc3cccnc3)C(=O)CCc3ccccc3)nc12	> 50 µM (inactive)
Fc1ccccc1Cc1nc(-c2ccc3nncn3c2)no1	> 50 µM (inactive)
CCn1cc(-c2nc(-c3ccccc3)no2)c(=O)c2cc(F)ccc21	18 µM
COc1ccc(NC(=O)Nc2cccc(-c3nnc(-c4ccccc4)o3)c2)cc1OC	39.3 µM
COc1ccc(OC)c(NC(=O)CNC(=O)c2cc3c(OC)cccc3[nH]2)c1	> 50 µM (inactive)
O=C(Cc1noc2ccccc12)N1CCN(c2ccc([N+](=O)[O-])cc2)CC1	> 50 µM (inactive)
Cc1ccc2c(Nc3ccc(CC(=O)O)cc3)c(C(=O)N3CCCC3)cnc2n1	> 50 µM (inactive)
Cn1c(CN2CCCCCC2)nc2cc(NC(=O)c3ccccc3)ccc21	> 50 µM (inactive)
COc1ccc(-n2ccc(=O)c(-c3nc(-c4ccccc4F)no3)n2)cc1OC	> 50 µM (inactive)
CS(=O)(=O)NC1CCCN(C(=O)Nc2cccc3ccccc23)C1 (configuration not stated)	> 50 µM (inactive)
Cc1oc(-c2ccc(C(=O)NCC3COCCO3)cc2)nc1CN1CCc2ccccc21 (configuration not stated)	> 50 µM (inactive)
O=C(COC(=O)c1ccc(CN2CCCC2=O)cc1)c1ccc2c(c1)OCCO2	> 50 µM (inactive)
